In ChEMBL document CHEMBL1201862, “PubChem BioAssay data set” (2004):
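96-well plates; 48 h exposure; 5 concentrations. Endpoints by linear interpolation between flanking doses. Not reached: highest tested concentration assigned. GI50 marks 50% less growth.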 Calls of active or inactive are those of the source. No stated cut-off is given here; in the data, active = GI50 up to about 1.1 µM and inactive = higher.

Tests used:
Test in all cases: NCI anticancer screen, dose series, 48 h
SK-MEL-28 = test system: SK-MEL-28
OVCAR-3 = test system: OVCAR-3
NCI-H226 = test system: NCI-H226
UO-31 = test system: UO-31
DU-145 = test system: DU-145
UACC-257 = test system: UACC-257
A549 = test system: A549
HCC 2998 = test system: HCC 2998
PC-3 = test system: PC-3
HL-60 = test system: HL-60
OVCAR-4 = test system: OVCAR-4
A498 = test system: A498
MOLT-4 = test system: MOLT-4
Malme-3M = test system: Malme-3M
MDA-MB-231 = test system: MDA-MB-231
HOP-92 = test system: HOP-92
M14 = test system: M14
TK-10 = test system: TK-10
EKVX = test system: EKVX
Hs-578T = test system: Hs-578T

SMILES	GI50 (SK-MEL-28)	GI50 (OVCAR-3)	GI50 (NCI-H226)	GI50 (UO-31)	GI50 (DU-145)	GI50 (UACC-257)	GI50 (A549)	GI50 (HCC 2998)	GI50 (PC-3)	GI50 (HL-60)	GI50 (OVCAR-4)	GI50 (A498)	GI50 (MOLT-4)	GI50 (Malme-3M)	GI50 (MDA-MB-231)	GI50 (HOP-92)	GI50 (M14)	GI50 (TK-10)	GI50 (EKVX)	GI50 (Hs-578T)
COc1ccc(C(c2ccc(OC)cc2)N2C(=O)CCC2C(=O)O)cc1 (stereo not drawn)	> 100 µM (inactive)	> 100 µM (inactive)	> 100 µM (inactive)	> 100 µM (inactive)	> 100 µM (inactive)	> 100 µM (inactive)	> 100 µM (inactive)	> 100 µM (inactive)	> 100 µM (inactive)	> 100 µM (inactive)	> 100 µM (inactive)	> 100 µM (inactive)	> 100 µM (inactive)	> 100 µM (inactive)	> 100 µM (inactive)	> 100 µM (inactive)	> 100 µM (inactive)	> 100 µM (inactive)	> 100 µM (inactive)	> 100 µM (inactive)
Nn1c(-c2ccccc2)nn(C(=O)c2ccccc2)c1=O	> 100 µM (inactive)	> 100 µM (inactive)	> 100 µM (inactive)	> 100 µM (inactive)	> 100 µM (inactive)	> 100 µM (inactive)	> 100 µM (inactive)	> 100 µM (inactive)	> 100 µM (inactive)	> 100 µM (inactive)	> 100 µM (inactive)	> 100 µM (inactive)	> 100 µM (inactive)	> 100 µM (inactive)	> 100 µM (inactive)	> 100 µM (inactive)	> 100 µM (inactive)	> 100 µM (inactive)	> 100 µM (inactive)	> 100 µM (inactive)
CC1(c2cccs2)CC(c2cccs2)=C(C#N)C(=C(C#N)C#N)N1 (stereo not drawn)	20.4 µM (inactive)	16.3 µM (inactive)	22.3 µM (inactive)	18.9 µM (inactive)	15.6 µM (inactive)	17.6 µM (inactive)	22 µM (inactive)	15.9 µM (inactive)	15.4 µM (inactive)	10.1 µM (inactive)	16.4 µM (inactive)	18.7 µM (inactive)	44.7 µM (inactive)	19.2 µM (inactive)	23.5 µM (inactive)	14.8 µM (inactive)	20.4 µM (inactive)	21 µM (inactive)	18.1 µM (inactive)	30.9 µM (inactive)
COC(=O)c1c2c(cc3c1CC1(Cc4ccc(C(C)=O)cc4C1)C3)CCC2 (stereo not drawn)	63.5 µM (inactive)	> 100 µM (inactive)	67.1 µM (inactive)	52.4 µM (inactive)	79.3 µM (inactive)	25.2 µM (inactive)	33.1 µM (inactive)	> 10 µM (inactive)	19.5 µM (inactive)	17.1 µM (inactive)	41.4 µM (inactive)	31.2 µM (inactive)	21 µM (inactive)	15.7 µM (inactive)	20.4 µM (inactive)	93.3 µM (inactive)	–	> 100 µM (inactive)	42.7 µM (inactive)	28.4 µM (inactive)
OC[C@H]1O[C@@H](n2cnc3c(S)ncnc32)[C@H](O)[C@@H]1O [THIOINOSINE]	> 2500 µM (inactive)	1160 µM (inactive)	> 2500 µM (inactive)	–	1390 µM (inactive)	> 2500 µM (inactive)	> 2500 µM (inactive)	> 2500 µM (inactive)	> 2500 µM (inactive)	> 1760 µM (inactive)	1520 µM (inactive)	> 2200 µM (inactive)	2300 µM (inactive)	1860 µM (inactive)	> 2500 µM (inactive)	1050 µM (inactive)	2360 µM (inactive)	> 2500 µM (inactive)	> 2500 µM (inactive)	> 2440 µM (inactive)
Oc1cc(Cc2ccccc2)c(Cc2ccccc2)cc1O	> 10 µM (inactive)	> 10 µM (inactive)	> 10 µM (inactive)	> 10 µM (inactive)	> 10 µM (inactive)	> 10 µM (inactive)	> 10 µM (inactive)	> 10 µM (inactive)	> 10 µM (inactive)	> 10 µM (inactive)	> 10 µM (inactive)	> 10 µM (inactive)	> 10 µM (inactive)	> 10 µM (inactive)	> 10 µM (inactive)	> 10 µM (inactive)	> 10 µM (inactive)	–	> 10 µM (inactive)	> 10 µM (inactive)
COc1cc(S(=O)(=O)Nc2ccc(-c3csc(/N=C\c4ccccc4O)n3)cc2)ccc1Cl	39.3 µM (inactive)	28.5 µM (inactive)	> 100 µM (inactive)	31 µM (inactive)	45.9 µM (inactive)	–	63.1 µM (inactive)	–	39.4 µM (inactive)	24.4 µM (inactive)	44.9 µM (inactive)	> 100 µM (inactive)	15.8 µM (inactive)	39.3 µM (inactive)	53.6 µM (inactive)	> 100 µM (inactive)	59 µM (inactive)	–	29.8 µM (inactive)	> 100 µM (inactive)
O=C1c2c(O)cccc2C(C2OC(CO)C(O)C(O)C2O)c2cc(CO)cc(O)c21 (stereo not drawn)	> 100 µM (inactive)	–	> 100 µM (inactive)	> 100 µM (inactive)	> 100 µM (inactive)	> 100 µM (inactive)	> 100 µM (inactive)	> 100 µM (inactive)	> 100 µM (inactive)	> 100 µM (inactive)	> 100 µM (inactive)	> 100 µM (inactive)	> 100 µM (inactive)	> 100 µM (inactive)	> 100 µM (inactive)	> 100 µM (inactive)	> 100 µM (inactive)	> 100 µM (inactive)	> 100 µM (inactive)	> 100 µM (inactive)
C(=C/CCCN1O[C@@H](CCCCCCCCc2cccnc2)[C@H]2CCC[C@H]21)/CCCCCCCCCc1cccnc1	21.3 µM (inactive)	17.1 µM (inactive)	16.4 µM (inactive)	19.4 µM (inactive)	32.4 µM (inactive)	14.6 µM (inactive)	14.1 µM (inactive)	–	18.8 µM (inactive)	5.22 µM (inactive)	32.4 µM (inactive)	22.1 µM (inactive)	21.7 µM (inactive)	15.4 µM (inactive)	17.9 µM (inactive)	13.2 µM (inactive)	24 µM (inactive)	18.4 µM (inactive)	4.48 µM (inactive)	37.8 µM (inactive)
CNc1ncnc(Sc2nc(N)nc3[nH]cnc23)c1[N+](=O)[O-]	8.2 µM (inactive)	0.75 µM (active)	5.7 µM (inactive)	0.676 µM (active)	0.356 µM (active)	1.54 µM (inactive)	3.08 µM (inactive)	–	4.23 µM (inactive)	1.91 µM (inactive)	1.46 µM (inactive)	17.9 µM (inactive)	0.409 µM (active)	1.46 µM (inactive)	1.73 µM (inactive)	0.52 µM (active)	0.448 µM (active)	0.251 µM (active)	3.08 µM (inactive)	3.24 µM (inactive)
C1=CC(=[N+]2N=C(c3ccccc3)CC2c2ccccc2)C=CC1=C1SC(c2ccccc2)(c2ccccc2)c2ccccc21.[O-][Cl+3]([O-])([O-])[O-] (stereo not drawn)	> 100 µM (inactive)	> 100 µM (inactive)	> 100 µM (inactive)	> 100 µM (inactive)	> 100 µM (inactive)	–	> 100 µM (inactive)	> 100 µM (inactive)	> 100 µM (inactive)	> 100 µM (inactive)	–	> 100 µM (inactive)	> 100 µM (inactive)	> 100 µM (inactive)	> 100 µM (inactive)	82 µM (inactive)	60.8 µM (inactive)	> 100 µM (inactive)	> 100 µM (inactive)	> 100 µM (inactive)
O=C(O)CCC(N/N=N/c1ccc(-c2nc3ccccc3[nH]2)cc1)C(=O)O (stereo not drawn)	> 100 µM (inactive)	30.3 µM (inactive)	> 100 µM (inactive)	13.6 µM (inactive)	> 100 µM (inactive)	> 100 µM (inactive)	78.7 µM (inactive)	–	81.8 µM (inactive)	37.2 µM (inactive)	66.5 µM (inactive)	> 100 µM (inactive)	31.6 µM (inactive)	–	> 100 µM (inactive)	36.1 µM (inactive)	54.1 µM (inactive)	> 100 µM (inactive)	> 100 µM (inactive)	44.4 µM (inactive)
O=C(CSc1nc2ccc(I)cc2c(=O)n1Cc1ccccc1)Nc1ccc(Br)cc1	49.4 µM (inactive)	63 µM (inactive)	25.9 µM (inactive)	0.114 µM (active)	70.5 µM (inactive)	–	> 100 µM (inactive)	–	17.5 µM (inactive)	> 100 µM (inactive)	34.7 µM (inactive)	22.5 µM (inactive)	> 100 µM (inactive)	16.6 µM (inactive)	17.2 µM (inactive)	60.3 µM (inactive)	56.5 µM (inactive)	–	12.9 µM (inactive)	17.8 µM (inactive)
O=C(NCCCNCCCNC(=O)c1cc(-c2ccccc2)nc2ccccc12)c1cc(-c2ccccc2)nc2ccccc12	1.77 µM (inactive)	1.46 µM (inactive)	1.69 µM (inactive)	1.83 µM (inactive)	1.59 µM (inactive)	1.97 µM (inactive)	1.83 µM (inactive)	0.834 µM (active)	1.6 µM (inactive)	1.4 µM (inactive)	1.74 µM (inactive)	1.93 µM (inactive)	–	2.13 µM (inactive)	2.01 µM (inactive)	2.02 µM (inactive)	1.79 µM (inactive)	1.91 µM (inactive)	1.68 µM (inactive)	2.35 µM (inactive)
